ChEMBL document CHEMBL1201862, “PubChem BioAssay data set” (2004)
pIC50: −log10 of the molar value. Active and inactive are the calls of the source.

What was measured:
[1] = biological target: Peroxisome proliferator-activated receptor gamma/Nuclear receptor coactivator 1 (Homo sapiens, UniProt P37231); assay type: functional;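 note: agonist potency as compounds enhance coactivator SRC-1 recruitment to PPARgamma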
[2] = biological target: Peroxisome proliferator-activated receptor gamma/Nuclear receptor coactivator 2 (Homo sapiens, UniProt P37231); assay type: functional;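 note: agonist potency for raising coactivator recruitment to the receptor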
Sequence of Peroxisome proliferator-activated receptor gamma/Nuclear receptor coactivator 2 (P37231 whole entry): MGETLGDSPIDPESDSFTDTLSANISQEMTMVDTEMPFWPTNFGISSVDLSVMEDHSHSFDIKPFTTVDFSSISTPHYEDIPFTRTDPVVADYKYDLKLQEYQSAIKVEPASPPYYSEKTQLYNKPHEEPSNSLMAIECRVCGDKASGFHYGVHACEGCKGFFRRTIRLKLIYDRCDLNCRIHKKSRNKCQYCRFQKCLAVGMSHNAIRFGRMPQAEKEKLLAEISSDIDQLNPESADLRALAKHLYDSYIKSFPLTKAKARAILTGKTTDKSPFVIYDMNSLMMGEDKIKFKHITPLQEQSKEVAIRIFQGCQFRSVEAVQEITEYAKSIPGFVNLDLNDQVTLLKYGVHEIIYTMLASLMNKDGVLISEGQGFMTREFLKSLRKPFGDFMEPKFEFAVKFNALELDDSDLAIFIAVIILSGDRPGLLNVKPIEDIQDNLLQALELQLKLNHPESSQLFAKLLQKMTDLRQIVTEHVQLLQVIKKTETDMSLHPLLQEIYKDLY
Sequence of Peroxisome proliferator-activated receptor gamma/Nuclear receptor coactivator 2 (Q15596 whole entry, further chain): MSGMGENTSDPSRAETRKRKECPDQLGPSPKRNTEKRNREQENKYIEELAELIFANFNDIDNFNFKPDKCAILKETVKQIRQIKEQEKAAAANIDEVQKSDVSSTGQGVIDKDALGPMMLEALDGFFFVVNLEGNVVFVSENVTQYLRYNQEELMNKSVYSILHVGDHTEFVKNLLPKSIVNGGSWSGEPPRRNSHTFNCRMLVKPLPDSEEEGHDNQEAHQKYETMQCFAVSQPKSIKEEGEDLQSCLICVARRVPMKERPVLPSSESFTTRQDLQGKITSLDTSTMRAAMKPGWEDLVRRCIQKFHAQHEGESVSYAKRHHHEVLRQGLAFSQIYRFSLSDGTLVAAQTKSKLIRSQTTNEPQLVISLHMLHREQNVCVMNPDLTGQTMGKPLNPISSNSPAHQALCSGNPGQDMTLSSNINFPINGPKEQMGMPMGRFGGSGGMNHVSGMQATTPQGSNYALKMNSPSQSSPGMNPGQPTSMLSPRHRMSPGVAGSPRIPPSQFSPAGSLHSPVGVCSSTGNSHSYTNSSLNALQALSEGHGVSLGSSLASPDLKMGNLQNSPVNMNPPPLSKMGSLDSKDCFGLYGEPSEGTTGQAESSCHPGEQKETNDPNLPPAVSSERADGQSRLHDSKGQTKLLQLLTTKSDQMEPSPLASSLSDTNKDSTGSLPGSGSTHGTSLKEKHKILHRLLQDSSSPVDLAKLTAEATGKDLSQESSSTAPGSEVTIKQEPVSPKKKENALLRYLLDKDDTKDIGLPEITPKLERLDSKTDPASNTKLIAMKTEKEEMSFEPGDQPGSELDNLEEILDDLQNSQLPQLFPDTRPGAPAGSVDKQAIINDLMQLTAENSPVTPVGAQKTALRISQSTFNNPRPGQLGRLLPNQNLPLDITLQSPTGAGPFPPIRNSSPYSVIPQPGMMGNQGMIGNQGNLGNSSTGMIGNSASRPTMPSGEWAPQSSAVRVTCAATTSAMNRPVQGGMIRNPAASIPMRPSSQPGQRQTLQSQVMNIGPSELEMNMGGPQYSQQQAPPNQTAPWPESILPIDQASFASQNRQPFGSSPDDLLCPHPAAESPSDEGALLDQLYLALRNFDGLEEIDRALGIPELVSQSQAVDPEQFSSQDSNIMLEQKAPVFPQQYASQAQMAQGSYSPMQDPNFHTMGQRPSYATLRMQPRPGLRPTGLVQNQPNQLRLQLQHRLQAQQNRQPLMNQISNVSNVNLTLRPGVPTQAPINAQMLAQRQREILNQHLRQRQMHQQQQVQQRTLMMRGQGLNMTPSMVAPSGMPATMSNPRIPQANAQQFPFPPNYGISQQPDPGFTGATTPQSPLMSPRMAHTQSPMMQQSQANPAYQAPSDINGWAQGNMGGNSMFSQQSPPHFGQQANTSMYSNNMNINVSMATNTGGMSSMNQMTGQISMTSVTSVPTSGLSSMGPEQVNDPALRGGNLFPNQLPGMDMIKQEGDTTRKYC

[3] = biological target: Peroxisome proliferator-activated receptor gamma/Nuclear receptor coactivator 3 (Homo sapiens, UniProt P37231); assay type: functional;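 note: agonist potency for raising coactivator recruitment to the receptor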
Cytochrome P450 2C9 = Cytochrome P450 2C9 (Homo sapiens, UniProt P11712)
Sequence of Cytochrome P450 2C9 (P11712 whole entry): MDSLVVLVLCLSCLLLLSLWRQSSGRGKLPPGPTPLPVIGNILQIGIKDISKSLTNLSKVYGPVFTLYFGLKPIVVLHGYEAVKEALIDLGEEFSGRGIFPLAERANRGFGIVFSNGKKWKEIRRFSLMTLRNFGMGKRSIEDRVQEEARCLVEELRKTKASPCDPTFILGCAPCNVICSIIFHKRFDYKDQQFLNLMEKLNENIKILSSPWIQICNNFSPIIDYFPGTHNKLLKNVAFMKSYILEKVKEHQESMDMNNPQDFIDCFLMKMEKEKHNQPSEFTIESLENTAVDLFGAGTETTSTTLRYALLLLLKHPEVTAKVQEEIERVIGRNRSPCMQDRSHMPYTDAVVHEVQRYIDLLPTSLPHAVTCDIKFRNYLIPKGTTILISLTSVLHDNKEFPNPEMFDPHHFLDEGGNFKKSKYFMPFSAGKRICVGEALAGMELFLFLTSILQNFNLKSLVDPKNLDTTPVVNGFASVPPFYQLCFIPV

[4] = biological target: Eukaryotic translation initiation factor 4E (Mus musculus, UniProt P63073); assay: eIF4E–eIF4G protein interaction inhibitors, dose response, biochemical, TR-FRET (AID 855); assay type: functional;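 note: potency for disrupting eIF4E binding to eIF4GI seen as loss of FRET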
Sequence of Eukaryotic translation initiation factor 4E (P63073 whole entry): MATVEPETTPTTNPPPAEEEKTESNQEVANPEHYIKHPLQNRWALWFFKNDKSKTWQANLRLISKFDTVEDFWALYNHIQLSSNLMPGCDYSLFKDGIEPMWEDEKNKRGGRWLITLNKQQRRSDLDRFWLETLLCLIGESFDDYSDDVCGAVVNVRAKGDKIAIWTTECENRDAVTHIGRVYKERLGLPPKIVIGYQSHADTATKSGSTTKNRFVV

Cytochrome P450 2C19 = Cytochrome P450 2C19 (Homo sapiens, UniProt P33261); assay: Cytochrome panel assay with activity outcomes. Panel member name: p450-cyp2c19 Compounds with AC50 equal or less than 10 uM are considered active; assay type: functional; conditions: read-out: AC50
Caspase-6 = biological target: T1, Caspase-6 (Homo sapiens, UniProt P55212); assay: human caspase-6 inhibitors, dose response, biochemical, VEID-R110 fluorescence, cherry-pick (AID 720632)
T1 sequence (P55212 whole entry): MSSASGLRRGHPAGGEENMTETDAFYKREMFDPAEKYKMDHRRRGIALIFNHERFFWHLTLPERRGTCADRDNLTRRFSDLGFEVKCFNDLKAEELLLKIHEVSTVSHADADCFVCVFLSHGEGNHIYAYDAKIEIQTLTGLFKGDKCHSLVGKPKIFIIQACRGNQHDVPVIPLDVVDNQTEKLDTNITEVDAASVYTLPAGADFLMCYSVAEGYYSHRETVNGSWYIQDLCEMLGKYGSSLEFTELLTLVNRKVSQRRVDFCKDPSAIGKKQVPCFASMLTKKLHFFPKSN

[5] = biological target: T2, Mannose-6-phosphate isomerase (Homo sapiens, UniProt P34949); assay: human PMI inhibitors, high substrate, primary screen, biochemical, fluorescence intensity, high mannose 6-phosphate (AID 1220)
T2 sequence (P34949 whole entry): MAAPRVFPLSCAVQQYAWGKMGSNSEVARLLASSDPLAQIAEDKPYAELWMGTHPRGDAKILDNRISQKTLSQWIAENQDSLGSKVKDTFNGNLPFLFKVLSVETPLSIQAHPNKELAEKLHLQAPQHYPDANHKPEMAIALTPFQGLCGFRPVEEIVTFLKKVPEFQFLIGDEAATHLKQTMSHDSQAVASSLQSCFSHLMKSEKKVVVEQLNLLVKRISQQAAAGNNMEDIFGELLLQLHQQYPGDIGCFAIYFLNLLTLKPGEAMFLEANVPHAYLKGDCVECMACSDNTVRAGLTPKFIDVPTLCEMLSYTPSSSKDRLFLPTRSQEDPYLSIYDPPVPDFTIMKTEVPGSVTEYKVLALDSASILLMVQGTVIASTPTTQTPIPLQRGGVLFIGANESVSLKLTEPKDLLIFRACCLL

[6] = cytotoxicity toward DRD oncogenic fibroblasts, dose response, cell-based, non-viral oncogenic, luminescence (AID 1934); assay type: functional; conditions: Homo sapiens
BJ [7] = assay: cells; assay type: functional, cell-based; conditions: Homo sapiens
BJ [8] = assay: cytotoxicity toward BJ-TERT-LT-ST fibroblasts, dose response, cell-based, RAS-independent, luminescence (AID 1935); assay type: functional; conditions: Homo sapiens;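 note: BJ fibroblasts immortalized with TERT plus LT and ST oncogenes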
BJ [9] = assay: cytotoxicity toward BJ-TERT fibroblasts, dose response, cell-based, RAS-independent, luminescence (AID 1933); assay type: functional; conditions: Homo sapiens
[10] = HepG2 cell cytotoxicity, dose response, cytotoxicity control for Shn3 inhibitor project, CellTiter-Glo, cherry-picked (AID 624134); assay type: functional, cell-based
H9c2 = assay: cells; assay type: functional, cell-based; conditions: Rattus norvegicus, H9c2, Myocardium;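 note: confirmatory concentration-response retest of ultra-high-throughput screening hits for modulation of myocardial damage; cell death induced by hydrogen peroxide oxidative stress; compound pretreatment for 60 min then peroxide exposure for 2 h; potency is for protecting the cells against peroxide damage rather than for killing them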
[11] = Shn3 3'UTR reporter inhibitors, dose response, cell-based, Clone20 osteoblasts, firefly luciferase, cherry-picked (AID 624132); assay type: functional;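 note: firefly luciferase luminescence from reporter carrying the Shn3 3'UTR in osteoblasts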
[12] = CEM21 lymphoblast cell cytotoxicity, dose response, cytotoxicity control for viral fusion inhibitor project, CellTiter-Glo luminescence, cherry-picked (AID 652042); assay type: functional, cell-based;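 note: potency for signal decrease meaning cytotoxicity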
[13] = biological target: T3, Kappa-type opioid receptor (Homo sapiens, UniProt P41145); assay type: functional
T3 sequence (P41145 whole entry, the tested form may be a part): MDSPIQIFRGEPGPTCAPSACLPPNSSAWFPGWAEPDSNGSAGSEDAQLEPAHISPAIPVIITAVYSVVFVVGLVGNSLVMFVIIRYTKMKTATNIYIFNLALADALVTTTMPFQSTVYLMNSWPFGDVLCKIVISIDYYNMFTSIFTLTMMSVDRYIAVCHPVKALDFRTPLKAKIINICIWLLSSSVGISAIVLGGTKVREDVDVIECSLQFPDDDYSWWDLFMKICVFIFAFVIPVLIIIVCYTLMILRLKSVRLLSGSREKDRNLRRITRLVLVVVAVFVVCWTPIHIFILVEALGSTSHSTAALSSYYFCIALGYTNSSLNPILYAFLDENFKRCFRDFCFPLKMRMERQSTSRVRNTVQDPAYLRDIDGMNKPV

[14] = inhibitors of clade B AD8 Env fusion, dose response, cell-based, cherry-pick (AID 652062); assay type: functional;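 note: luciferase signal from cell-cell fusion driven by HIV-1 clade B AD8 Env; potency is for inhibitors of fusion seen as a drop in luminescence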
[15] = control 3'UTR Renilla luciferase suppression, dose response, counter-screen for Shn3 inhibitor project, cell-based, Clone20-Shn3RL, cherry-picked (AID 624133); assay type: functional
Beta-galactosidase = Beta-galactosidase (Escherichia coli, UniProt Q8VNN2); assay type: functional
[16] = biological target: T3, Kappa-type opioid receptor; assay type: functional; remark: listed apart in the source
[17] = biological target: Luciferin 4-monooxygenase (Photinus pyralis, UniProt P08659); assay: firefly luciferase enzyme inhibitors, dose response, biochemical, luminescence (AID 1891)
[18] = Luminescence Cell-Based Dose Confirmation HTS to Identify Inhibitors of Platelet Dense Granule Release. [Related pubchem assays: 1663 (Primary HTS), 1678 (Summary of Project)]; assay type: functional
[19] = biological target: T4, Short transient receptor potential channel 4 (Mus musculus, UniProt Q9QUQ5); assay: mouse TRPC4 channel inhibitors, dose response, cell-based, HEK293 TRPC4/mu-opioid, Fluo-4 calcium (AID 434942); assay type: functional;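 note: potency of inhibitors blocking the TRPC4 calcium response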
T4 sequence (Q9QUQ5 whole entry): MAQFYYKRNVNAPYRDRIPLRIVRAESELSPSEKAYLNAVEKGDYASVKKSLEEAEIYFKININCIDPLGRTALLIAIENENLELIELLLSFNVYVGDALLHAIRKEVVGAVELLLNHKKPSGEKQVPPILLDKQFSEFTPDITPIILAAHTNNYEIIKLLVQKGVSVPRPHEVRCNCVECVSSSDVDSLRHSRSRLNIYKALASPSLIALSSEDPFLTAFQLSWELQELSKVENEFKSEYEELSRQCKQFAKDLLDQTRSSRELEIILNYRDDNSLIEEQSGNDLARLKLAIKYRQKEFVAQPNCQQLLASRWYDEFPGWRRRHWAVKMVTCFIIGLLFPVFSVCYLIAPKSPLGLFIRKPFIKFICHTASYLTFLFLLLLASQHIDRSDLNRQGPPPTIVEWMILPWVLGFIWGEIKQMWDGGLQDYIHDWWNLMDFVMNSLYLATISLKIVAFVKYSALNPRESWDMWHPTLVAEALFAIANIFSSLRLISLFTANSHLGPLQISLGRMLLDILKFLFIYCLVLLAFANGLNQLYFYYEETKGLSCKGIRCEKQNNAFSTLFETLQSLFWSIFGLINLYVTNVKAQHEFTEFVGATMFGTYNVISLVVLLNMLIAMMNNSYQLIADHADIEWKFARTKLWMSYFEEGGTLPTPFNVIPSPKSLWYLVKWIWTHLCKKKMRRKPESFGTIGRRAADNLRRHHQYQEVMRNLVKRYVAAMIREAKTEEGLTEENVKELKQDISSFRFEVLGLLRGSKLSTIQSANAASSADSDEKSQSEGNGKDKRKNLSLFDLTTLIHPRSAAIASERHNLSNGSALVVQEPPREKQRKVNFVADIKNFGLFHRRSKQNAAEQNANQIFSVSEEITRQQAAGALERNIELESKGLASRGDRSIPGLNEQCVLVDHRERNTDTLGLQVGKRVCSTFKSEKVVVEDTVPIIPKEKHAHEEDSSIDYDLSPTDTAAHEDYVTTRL

Sequence of Peroxisome proliferator-activated receptor gamma/Nuclear receptor coactivator 1 (P37231 whole entry): as the sequence (P37231 whole entry) above
Sequence of Peroxisome proliferator-activated receptor gamma/Nuclear receptor coactivator 1 (Q15788 whole entry, further chain): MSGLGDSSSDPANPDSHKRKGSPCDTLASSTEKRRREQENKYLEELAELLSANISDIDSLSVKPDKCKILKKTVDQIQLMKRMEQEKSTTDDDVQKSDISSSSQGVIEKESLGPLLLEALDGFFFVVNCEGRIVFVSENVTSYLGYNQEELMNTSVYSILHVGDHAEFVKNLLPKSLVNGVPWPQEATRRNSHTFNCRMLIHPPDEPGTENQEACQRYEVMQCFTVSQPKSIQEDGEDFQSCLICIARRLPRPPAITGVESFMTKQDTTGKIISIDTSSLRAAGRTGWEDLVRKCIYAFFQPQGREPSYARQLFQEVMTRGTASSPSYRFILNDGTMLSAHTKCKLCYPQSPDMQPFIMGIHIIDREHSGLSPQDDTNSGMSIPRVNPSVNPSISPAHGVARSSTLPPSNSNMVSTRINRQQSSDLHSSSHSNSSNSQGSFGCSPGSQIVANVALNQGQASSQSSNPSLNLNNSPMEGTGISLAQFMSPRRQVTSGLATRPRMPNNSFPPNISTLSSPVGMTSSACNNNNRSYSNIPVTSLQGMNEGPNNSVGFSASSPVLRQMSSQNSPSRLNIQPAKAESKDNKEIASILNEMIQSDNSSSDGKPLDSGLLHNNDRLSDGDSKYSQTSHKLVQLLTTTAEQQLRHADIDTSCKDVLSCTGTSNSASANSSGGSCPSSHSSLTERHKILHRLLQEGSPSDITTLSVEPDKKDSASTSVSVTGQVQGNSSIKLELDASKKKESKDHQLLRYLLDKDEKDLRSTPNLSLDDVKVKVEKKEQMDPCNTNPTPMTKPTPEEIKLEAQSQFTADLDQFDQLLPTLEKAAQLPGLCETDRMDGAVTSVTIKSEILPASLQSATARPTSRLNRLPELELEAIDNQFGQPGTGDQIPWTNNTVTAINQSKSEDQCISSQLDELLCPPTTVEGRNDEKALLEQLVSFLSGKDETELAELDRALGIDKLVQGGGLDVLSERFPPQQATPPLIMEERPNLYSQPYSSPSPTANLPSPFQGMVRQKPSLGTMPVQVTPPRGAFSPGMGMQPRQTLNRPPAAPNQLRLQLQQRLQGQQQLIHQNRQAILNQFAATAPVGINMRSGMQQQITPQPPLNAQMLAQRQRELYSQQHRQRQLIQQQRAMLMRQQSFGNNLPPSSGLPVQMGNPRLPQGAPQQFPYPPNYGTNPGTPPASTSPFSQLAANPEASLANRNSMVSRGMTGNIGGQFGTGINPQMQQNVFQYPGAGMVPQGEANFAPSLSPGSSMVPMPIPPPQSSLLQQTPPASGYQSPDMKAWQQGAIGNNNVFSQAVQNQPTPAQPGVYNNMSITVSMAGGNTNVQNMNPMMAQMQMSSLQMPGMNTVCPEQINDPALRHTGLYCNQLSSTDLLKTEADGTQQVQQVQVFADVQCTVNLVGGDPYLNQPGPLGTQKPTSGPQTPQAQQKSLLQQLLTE

SMILES: Clc1cccc2sc(N3CCN(c4ccccc4)CC3)nc12
- EC50 [1]: > 79.4 µM (not active)
- EC50 [2]: > 79.4 µM (not active)
- EC50 [3]: > 79.4 µM (not active)

SMILES: CC(C)CC(=O)N1CCC(N2CCN(c3ccccc3)CC2)CC1
- AC50 (Cytochrome P450 2C9): 14.1 µM (inconclusive)
- IC50 [4]: > 64 µM (inactive)
- AC50 (Cytochrome P450 2C19): 15.8 µM (inconclusive)

SMILES: Cc1ccc2cc(N)ccc2n1
- AC50 (Caspase-6): 14.2 µM (active)
- IC50 [5]: > 50 µM (not active)

SMILES: O=C(c1cccc([N+](=O)[O-])c1)c1ccccn1
- EC50 [6]: > 150 µM (not active)
- EC50 (BJ [7]): > 150 µM (not active)
- EC50 (BJ [8]): > 150 µM (not active)
- EC50 (BJ [9]): > 150 µM (not active)

SMILES: O=C(Cc1sc(-c2ccccc2Cl)nc1-c1ccccc1)Nc1ccccc1
- EC50 [1]: 10 µM (not active)
- EC50 [2]: 6.82 µM (active)
- EC50 [3]: 11.3 µM (not active)

SMILES: O=C(NNC(=O)C(c1ccccc1)c1ccccc1)c1ccccn1
- AC50 [10]: 5.11 µM (active)
- IC50 (H9c2): > 79 µM (inactive)
- AC50 [11]: 2.87 µM (active)
- AC50 [12]: 3.53 µM (active)
- IC50 [13]: 17.5 µM (active)
- AC50 [14]: 0.585 µM (active)
- AC50 [15]: 2.52 µM (active)
- EC50 (Beta-galactosidase): > 31.5 µM (inactive)
- pIC50 [16]: < 4.49

SMILES: CC1(C)Cc2c(sc3nc(NCCN4CCOCC4)n4ncnc4c23)CO1
- EC50 [17]: > 112 µM (not active)
- EC50 [18]: 10.8 µM (active)
- IC50 [4]: > 64 µM (inactive)

SMILES: Cc1ccccc1N(C(=O)c1snc(C(N)=O)c1N)C(C(=O)NC1CCCC1)c1ccco1 (stereo unspecified)
- EC50 [19]: 2.99 µM (active)

SMILES: CN(C)/C=C1\Oc2ccc3ccccc3c2C1=O
- IC50 [5]: > 50 µM (not active)

SMILES: CN(CC(=O)Nc1ccc(N2CCOCC2)cc1)Cc1c(O)ccc2ccccc12
- IC50 [5]: > 50 µM (not active)

SMILES: CC1CCCN(c2c3c(nc4ccccc24)CCCC3)C1 (stereo unspecified)
- EC50 [19]: 1.33 µM (active)
